Values belong to the compound of their own block, whether it stands above or below them. Activity calls are given as the source filed them. The rule behind the calls is not given here.
Key:
[1] = molecular target: T1, Peroxisome proliferator-activated receptor alpha (Homo sapiens) (UniProt Q07869); assay: Binding affinity to GST-PPAR-alpha LBP (unknown origin) at 1 uM by TR-FRET assay
T1 sequence (whole entry): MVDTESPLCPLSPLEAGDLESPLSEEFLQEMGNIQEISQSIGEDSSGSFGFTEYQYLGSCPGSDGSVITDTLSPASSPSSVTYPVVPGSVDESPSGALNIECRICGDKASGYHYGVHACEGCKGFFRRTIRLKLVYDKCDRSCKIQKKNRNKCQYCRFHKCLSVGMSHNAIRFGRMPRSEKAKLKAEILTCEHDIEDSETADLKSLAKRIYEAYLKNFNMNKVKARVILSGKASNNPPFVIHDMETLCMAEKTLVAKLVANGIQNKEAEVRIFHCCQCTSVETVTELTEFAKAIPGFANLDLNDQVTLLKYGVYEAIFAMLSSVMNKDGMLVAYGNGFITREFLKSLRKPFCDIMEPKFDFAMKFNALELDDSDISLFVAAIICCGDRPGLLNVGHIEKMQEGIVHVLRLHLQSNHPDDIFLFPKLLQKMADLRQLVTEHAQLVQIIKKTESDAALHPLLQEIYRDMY

[2] = molecular target: T1, Peroxisome proliferator-activated receptor alpha (Homo sapiens); assay: Binding affinity to GST-PPAR-alpha LBP (unknown origin) at 1 uM after 2 hrs by TR-FRET assay
[3] = molecular target: T2, Peroxisome proliferator-activated receptor gamma (Homo sapiens) (UniProt P37231); assay: Binding affinity to GST-PPAR-gamma LBP (unknown origin) at 1 uM after 1 hr by TR-FRET assay
T2 sequence (whole entry): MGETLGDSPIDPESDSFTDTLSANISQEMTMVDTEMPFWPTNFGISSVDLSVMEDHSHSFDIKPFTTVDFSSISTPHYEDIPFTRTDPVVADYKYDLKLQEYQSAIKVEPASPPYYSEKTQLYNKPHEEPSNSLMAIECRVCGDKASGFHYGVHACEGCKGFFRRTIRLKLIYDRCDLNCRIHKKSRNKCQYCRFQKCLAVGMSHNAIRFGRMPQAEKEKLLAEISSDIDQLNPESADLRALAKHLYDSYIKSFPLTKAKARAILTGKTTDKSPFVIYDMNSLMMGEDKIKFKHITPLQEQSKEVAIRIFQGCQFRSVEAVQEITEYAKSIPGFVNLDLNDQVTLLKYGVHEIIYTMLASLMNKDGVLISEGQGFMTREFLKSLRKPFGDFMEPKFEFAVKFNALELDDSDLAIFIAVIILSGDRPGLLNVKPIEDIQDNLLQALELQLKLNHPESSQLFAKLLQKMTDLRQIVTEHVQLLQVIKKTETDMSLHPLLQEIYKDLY

[4] = molecular target: T3, Peroxisome proliferator-activated receptor delta (Homo sapiens, UniProt Q03181); assay: Binding affinity to GST-PPAR-beta/delta LBP (unknown origin) after 2 hrs by TR-FRET assay
T3 sequence (Q03181 whole entry): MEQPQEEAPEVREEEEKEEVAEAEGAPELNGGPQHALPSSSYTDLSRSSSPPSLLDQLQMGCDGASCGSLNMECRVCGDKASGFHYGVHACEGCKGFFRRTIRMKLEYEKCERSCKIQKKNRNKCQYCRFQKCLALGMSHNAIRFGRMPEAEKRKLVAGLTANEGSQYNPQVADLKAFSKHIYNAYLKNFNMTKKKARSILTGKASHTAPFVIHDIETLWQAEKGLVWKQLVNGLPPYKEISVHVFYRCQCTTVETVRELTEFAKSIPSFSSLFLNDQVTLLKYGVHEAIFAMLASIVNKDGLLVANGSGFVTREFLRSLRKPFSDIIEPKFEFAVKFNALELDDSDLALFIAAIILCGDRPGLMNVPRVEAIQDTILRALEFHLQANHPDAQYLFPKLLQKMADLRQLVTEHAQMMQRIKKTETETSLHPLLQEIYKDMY

[5] = molecular target: T3, Peroxisome proliferator-activated receptor delta; assay: Binding affinity to GST-PPAR-beta/delta LBP (unknown origin) after 3 hrs by TR-FRET assay
[6] = molecular target: T2, Peroxisome proliferator-activated receptor gamma (Homo sapiens); assay: Binding affinity to GST-PPAR-gamma LBP (unknown origin) at 1 uM after 24 hrs by TR-FRET assay
[7] = molecular target: T2, Peroxisome proliferator-activated receptor gamma (Homo sapiens); assay: Binding affinity to GST-PPAR-gamma LBP (unknown origin) at 10 uM after 24 hrs by TR-FRET assay
[8] = molecular target: T3, Peroxisome proliferator-activated receptor delta; assay: Binding affinity to GST-PPAR-beta/delta LBP (unknown origin) after 24 hrs by TR-FRET assay
[9] = molecular target: T3, Peroxisome proliferator-activated receptor delta; assay: Binding affinity to GST-PPAR-beta/delta LBP (unknown origin) after 20 mins by TR-FRET assay
[10] = molecular target: T1, Peroxisome proliferator-activated receptor alpha (Homo sapiens); assay: Binding affinity to GST-PPAR-alpha LBP (unknown origin) at 1 and 10 uM after 24 hrs by TR-FRET assay
[11] = molecular target: T1, Peroxisome proliferator-activated receptor alpha (Homo sapiens); assay: Binding affinity to GST-PPAR-alpha LBP (unknown origin) at 1 and 10 uM after 1 hr by TR-FRET assay
[12] = molecular target: T2, Peroxisome proliferator-activated receptor gamma (Homo sapiens); assay: Binding affinity to GST-PPAR-gamma LBP (unknown origin) at 10 uM after 1 hr by TR-FRET assay
[13] = molecular target: T3, Peroxisome proliferator-activated receptor delta; assay: Binding affinity to GST-PPAR-beta/delta LBP (unknown origin) after 40 mins by TR-FRET assay
[14] = molecular target: T3, Peroxisome proliferator-activated receptor delta; assay: Binding affinity to GST-PPAR-beta/delta LBP (unknown origin) after 1 hr by TR-FRET assay
[15] = molecular target: T4, Peroxisome proliferator-activated receptor delta (Homo sapiens) (UniProt Q03181); assay: Binding affinity to GST-PPAR-beta/delta LBP (unknown origin) at 1 uM after 1 hr by TR-FRET assay
T4 sequence (whole entry): T3 sequence (Q03181 whole entry)

- Activity [1]: Active
- Activity [2]: Active
Compound: O=C(NCCS(=O)(=O)c1ccc(C(F)(F)F)cn1)c1ccnc2ccccc12

- Activity [1]: Active
Compound: O=C(NCCS(=O)(=O)c1ccc(C(F)(F)F)cn1)c1ccc2ccccc2n1

- Activity [1]: Active
Compound: O=C(NCCS(=O)(=O)c1ccc(C(F)(F)F)cn1)c1cncc2ccccc12

- Activity [1]: Active
Compound: O=C(NCCS(=O)(=O)c1ccc(C(F)(F)F)cn1)c1ccccc1

- Activity [1]: Active
Compound: O=C(NCCS(=O)(=O)c1ccc(C(F)(F)F)cn1)c1cccnc1

- Activity [1]: Active
Compound: O=C(COc1ccccc1)NCCS(=O)(=O)c1ccc(C(F)(F)F)cn1

- Activity [1]: Active
- Activity [3]: Active
Compound: O=C(NCCS(=O)(=O)c1ccc(C(F)(F)F)cn1)c1nccc2ccccc12

- IC50 [4]: 448 nM
- Activity [1]: Active
- IC50 [5]: 320 nM
- Activity [3]: Active
- Activity [6]: Active
- Activity [7]: Active
- IC50 [9]: 1930 nM
- Activity [10]: inactive
- Activity [11]: inactive
- Activity [15]: Active
- Activity [12]: Active
- IC50 [13]: 930 nM
- IC50 [14]: 751 nM
Compound: O=C(NCCS(=O)(=O)c1ccc(C(F)(F)F)cn1)c1ccc2ccccc2c1

- Activity [1]: Active
- Activity [3]: Active
- Activity [15]: Active
Compound: O=C(NCCS(=O)(=O)c1ccc(C(F)(F)F)cn1)c1cccc2ccccc12

- Activity [1]: Active
Compound: O=C(NCCS(=O)(=O)c1ccc(C(F)(F)F)cn1)c1cc2ccccc2cn1

- IC50 [4]: 2320 nM
- IC50 [5]: 1430 nM
- Activity [3]: Active
- Activity [6]: Active
- Activity [7]: Active
- IC50 [8]: 241 nM
- Activity [10]: inactive
- Activity [11]: inactive
- Activity [12]: Active
- IC50 [13]: 17600 nM
- IC50 [14]: 6820 nM
Compound: O=C(NCCS(=O)(=O)c1ccc(C(F)(F)F)cn1)c1cnc2ccccc2c1

The next lines start with the compound.

Compound: CN(CCS(=O)(=O)c1ccc(C(F)(F)F)cn1)C(=O)c1ccc2ccccc2c1
- Activity [1]: Active
- Activity [3]: Active

Compound: O=C(NCCS(=O)(=O)c1ccc(C(F)(F)F)cn1)c1cccc2ccncc12
- Activity [1]: Active

Compound: O=C(NCCS(=O)(=O)c1ccc(C(F)(F)F)cn1)c1ccc2cnccc2c1
- Activity [1]: Active

Compound: O=C(NCCS(=O)(=O)c1ccc(C(F)(F)F)cn1)c1ccc2c(c1)CCCC2
- IC50 [4]: 907 nM
- IC50 [5]: 598 nM
- Activity [3]: Active
- Activity [6]: Active
- Activity [7]: Active
- IC50 [8]: 271 nM
- IC50 [9]: 4220 nM
- Activity [10]: inactive
- Activity [11]: inactive
- Activity [12]: Active
- IC50 [13]: 1960 nM
- IC50 [14]: 1530 nM

Compound: O=C(NCCS(=O)(=O)c1ccc(C(F)(F)F)cn1)c1ccc2cccnc2c1
- Activity [1]: Active

Compound: O=C(NCCS(=O)(=O)c1ccc(C(F)(F)F)cn1)c1ccc2ncccc2c1
- Activity [1]: Active

Compound: CC(C)C(=O)NCCS(=O)(=O)c1ccc(C(F)(F)F)cn1
- Activity [1]: Active

Compound: O=C(NCCS(=O)(=O)c1ccc(C(F)(F)F)cn1)c1ccc2ccncc2c1
- Activity [1]: Active
- Activity [3]: Active

Compound: COc1ccc(C(=O)NCCS(=O)(=O)c2ccc(C(F)(F)F)cn2)cc1
- Activity [1]: Active
- Activity [15]: Active

Compound: O=C(CCCS(=O)(=O)c1ccc(C(F)(F)F)cn1)c1cccc2ccccc12
- Activity [1]: Active

Compound: O=C(NCCS(=O)(=O)c1ccc(C(F)(F)F)cn1)c1ccc(F)cc1
- Activity [1]: Active
- Activity [3]: Active
- Activity [15]: Active

Compound: O=C(NCCS(=O)(=O)c1ccc(C(F)(F)F)cn1)c1cccc2c1CCCC2
- Activity [1]: Active
- Activity [3]: Active

Compound: CN1CCN(c2ccc(/C=C(\C#N)c3ccccc3Br)cc2)CC1
- IC50 [4]: 37 nM
- IC50 [5]: 40.1 nM
- IC50 [8]: 48 nM
- IC50 [9]: 29 nM
- IC50 [13]: 30.4 nM
- IC50 [14]: 32.7 nM

Compound: O=C(NCCS(=O)(=O)c1ccc(C(F)(F)F)cn1)c1ccc(Cl)cc1
- IC50 [4]: 284 nM
- IC50 [5]: 233 nM
- Activity [3]: Active
- Activity [7]: Active
- IC50 [8]: 1.21 nM
- IC50 [9]: 1330 nM
- Activity [10]: inactive
- Activity [11]: inactive
- Activity [12]: Active
- IC50 [13]: 825 nM
- IC50 [14]: 648 nM

Compound: O=C(CCCS(=O)(=O)c1ccc(C(F)(F)F)cn1)c1ccc2ccccc2c1
- Activity [1]: Active

Compound: O=C(NCCS(=O)(=O)c1ccc(C(F)(F)F)cn1)C12CC3CC(CC(C3)C1)C2
- Activity [1]: Active

Compound: O=C(NCCS(=O)(=O)c1ccc(C(F)(F)F)cn1)c1cccc2ncccc12
- Activity [1]: Active

Compound: O=C(c1ccc2ccccc2c1)N(CCS(=O)(=O)c1ccc(C(F)(F)F)cn1)Cc1ccccc1
- Activity [1]: Active

Compound: CCN(CCS(=O)(=O)c1ccc(C(F)(F)F)cn1)C(=O)c1ccc2ccccc2c1
- Activity [1]: Active

Compound: O=C(NCCS(=O)(=O)c1ccc(C(F)(F)F)cn1)c1cccc2cccnc12
- Activity [1]: Active

Compound: CC(C)(C)C(=O)NCCS(=O)(=O)c1ccc(C(F)(F)F)cn1
- Activity [1]: Active

Compound: Cc1nc(-c2ccc(C(F)(F)F)cc2)sc1C(=O)NCCS(=O)(=O)c1ccc(C(F)(F)F)cn1
- IC50 [4]: 301 nM
- IC50 [5]: 284 nM
- Activity [3]: Active
- IC50 [9]: 949 nM
- Activity [10]: inactive
- Activity [11]: inactive
- IC50 [13]: 581 nM
- IC50 [14]: 423 nM

Compound: O=C(NCCS(=O)(=O)c1ccc(C(F)(F)F)cn1)c1cccc2cnccc12
- Activity [1]: Active
